Results as given in ChEMBL document CHEMBL6153082, “Macrocyclization as a Strategy for Kinetic Solubility Improvement: A Comparative Analysis of Matched Molecular Pairs” (J Med Chem, 2025).
Converted amounts (≈) assume the structure as drawn.

Assays:
[1] = Apparent permeability across apical to basolateral side in MDCK cells; type: ADME, cell-based, Canis lupus familiaris; conditions: dog
[2] = Metabolic stability in mouse liver microsomes assessed as half life in presence of NADPH incubated for 30 mins by LC-MS/MS analysis; type: ADME, Microsome
[3] = Efflux ratio in dog MDCK cells; type: ADME, cell-based, Canis lupus familiaris
[4] = Solubility of compound at pH 7.4; type: physicochemical; conditions: buffer
[5] = Apparent permeability across basolateral to apical side in MDCK cells; type: ADME, cell-based, Canis lupus familiaris; conditions: dog
[6] = Lipophilicity, logD of the compound in n-octanol/aqueous at pH 7.4 incubated overnight by UPLC analysis; type: physicochemical
[7] = Kinetic aqueous solubility of compound at pH 7.4 at 5 to 300 uM; type: physicochemical; conditions: dose 5-300 µM, read-out: Kinetic_solubility
[8] = Unbound fraction in mouse microsome incubated for 4 hrs by LC-MS/MS analysis; type: ADME; conditions: microsomes
[9] = Dissociation constant, pKa of the compound by potentiometric titration analysis; type: physicochemical

SMILES	Papp A→B [1] [×10⁻⁶ cm/s]	half-life [2] [min]	efflux ratio [3]	solubility [4] [µM]	Papp B→A [5] [×10⁻⁶ cm/s]	logD [6]	solubility kinetic [7] [µM]	Papp [1]	Ratio [3]	Papp [5]	fraction unbound at 4 h [8]	pKa [9]
CCC[C@H]1NC(=O)c2cccnc2OCCOCCN(C2CCCC2)CC2CCN(CC2)C1=O	10	7.4	5.4	303 (≈ 143 µg/mL)	56	1.5						
COc1cc2cc(OC)c1OCCCCOC(=O)[C@@H]1CCCCN1C(=O)[C@H]2C1CCCCC1							137 (≈ 63 µg/mL)					
C=CCOc1ccccc1CN(CC(=O)N1CCC(CC(=O)NC2CC2)CC1)Cc1ccccc1		1		83.5 (≈ 39.7 µg/mL)		3.8		8 10^-6 cm/s	66	33 10^-6 cm/s	0.57	
C=CCOc1ccccc1CN(CC(=O)N1CCC(CC(=O)NC2CC2)CC1)C1CCCC1		5		192 (≈ 87.1 µg/mL)		1.8		3 10^-6 cm/s	4	68 10^-6 cm/s	1	
CCOc1ccccc1C(=O)N1CCN(C2CCCC2)C[C@@H]1C(=O)NC[C@@H]1CCCCO1		1		170 (≈ 75.4 µg/mL)		2.5		29 10^-6 cm/s	12	44 10^-6 cm/s	0.68	
COc1cc2cc(c1OC)OCCCn1cc(nn1)CCCCOC(=O)[C@@H]1CCCCN1C(=O)[C@H]2C1CCCCC1							100 (≈ 56.9 µg/mL)					
CCOc1ccccc1C(=O)N1CCN(Cc2ccccc2)C[C@@H]1C(=O)NC[C@@H]1CCCCO1		1		237 (≈ 110 µg/mL)		3.2		33 10^-6 cm/s	21	49 10^-6 cm/s	1	7.4
COc1cc2cc(c1OC)O[C@@H](C)CCn1cc(nn1)CCCCOC(=O)[C@@H]1CCCCN1C(=O)[C@H]2C1CCCCC1							100 (≈ 58.3 µg/mL)					
CCCc1cn(CC[C@H](C)Oc2cc([C@@H](C(=O)N3CCCC[C@H]3C(=O)OC)C3CCCCC3)cc(OC)c2OC)nn1							65 (≈ 38 µg/mL)					
C=CCOc1ccccc1CN(CC(=O)N1CCC(CC(=O)NC2CC2)CC1)C1CCN(C)CC1		120		244 (≈ 118 µg/mL)		0.5		1 10^-6 cm/s	2	11 10^-6 cm/s	0.76	
CCC[C@@H](NC(=O)c1cccnc1OC)C(=O)N1CCC(CCN(CCOC)C2CCN(C)CC2)CC1		103		303 (≈ 157 µg/mL)		0.8		93 10^-6 cm/s	38	88 10^-6 cm/s	0.77	
CCCOC(=O)[C@@H]1CCCCN1C(=O)[C@H](c1cc(OC)c(OC)c(OC)c1)C1CCCCC1							45 (≈ 20.8 µg/mL)					
CCOc1ccccc1C(=O)N1CCN(C2CCCC2)C[C@@H]1C(=O)NC[C@H]1CCCCO1		120		303 (≈ 134 µg/mL)		2.5		32 10^-6 cm/s	29	50 10^-6 cm/s	0.68	
C=CCOc1ccccc1CN(CC(=O)N1CCC(CC(=O)NC2CC2)CC1)C(C)C		16		167 (≈ 71.4 µg/mL)		1		2 10^-6 cm/s	2	57 10^-6 cm/s	1	
CCOc1ccccc1C(=O)N1CCN(Cc2ccccc2)C[C@@H]1C(=O)NC[C@H]1CCCCO1		120		287 (≈ 134 µg/mL)		3.2		32 10^-6 cm/s	69	49 10^-6 cm/s	1	7.4
COc1cc2cc(c1OC)OC/C=C/COC(=O)[C@@H]1CCCCN1C(=O)[C@H]2C1CCCCC1							103 (≈ 47.1 µg/mL)					
CCCc1cn(CCCOc2cc([C@@H](C(=O)N3CCCC[C@H]3C(=O)OC)C3CCCCC3)cc(OC)c2OC)nn1							65 (≈ 37.1 µg/mL)					
C=CCOC(=O)[C@@H]1CCCCN1C(=O)[C@H](c1cc(OC)c(OC)c(OC)c1)C1CCCCC1							12 (≈ 5.51 µg/mL)					
